Columns and labels:
Format in all cases: cell-based
[1] = biological target: EGFR(D770_N771insSVD) expressing Ba/F3 stable cell line (Homo sapiens, UniProt P00533, DUP768-770, cells depend on it); assay: Cellular proliferation (Alamar Blue) assay, EGFR(D770_N771insSVD) Ba/F3; conditions: 72 hr, read-out: D770 IC50
Procedure: (§1) Cell line details: • 1. EGFR(D770_N771insSVD) expressing Ba/F3 stable cell line • 2. EGFR (A767_dupASV) expressing Ba/F3 stable cell line • 3. A431 cells • 4. EGFR (H773insNPH) expressing Ba/F3 stable cell line • 5. HER2 (A775_G776insYVMA) expressing Ba/F3 stable cell line
(§2) • 1. Seed cells at 5000 for A431 and 15,000 cells for Ba/F3 in 100 μL/well in complete media (for A431: DMEM with 10% FBS and for Ba/F3 cells: RPMI with 10% FBS) in 96-well tissue culture plate. Leave outer wells without cells for background measurements. Incubate at 37 degree Celsius in 5% CO2 humidified incubator for 16-18 hours. • 2. Add 0.025 ml of 5X concentration compound dilution or DMSO control. Final compound concentration range is 10-0.0005 μM prepared in 3-fold serial dilutions. Incubate for 72 hr at 37 degree Celsius in 5% CO2 humidified incubator. • 3. Add 0.0125 ml Alamar Blue™ reagent to each well with multi-channel pipette and tap gently on each side of the plate to mix. Incubate for 3 hours at 37 degree Celsius in 5% CO2 humidified incubator. • 4. […] Data analysis was performed using XLfit 5.5.0.5.

[2] = biological target: EGFR (A767_dupASV) expressing Ba/F3 stable cell line (Homo sapiens, UniProt P00533, DUP767-769, cells depend on it); assay: Cellular proliferation (Alamar Blue) assay, EGFR (A767_dupASV) Ba/F3; conditions: 72 hr, read-out: A767 IC50
Procedure: as §1, §2

[3] = biological target: HER2 (A775_G776insYVMA) expressing Ba/F3 stable cell line (Homo sapiens, UniProt P04626, DUP772-775, cells depend on it); assay: Cellular proliferation (Alamar Blue) assay, HER2 (A775_G776insYVMA) Ba/F3; conditions: HER2 (A775_G776insYVMA) Ba/F3 cells; 72 hr; Alamar Blue; read-out: YVMA IC50
Procedure: as §1, §2

[4] = tested on: A431 cells; assay: Cellular proliferation (Alamar Blue) assay, A431 cells; conditions: Homo sapiens, A-431, 72 h, A431 cells; 72 hr; Alamar Blue; read-out: A431 IC50
Procedure: as §2

Chain of EGFR(D770_N771insSVD) expressing Ba/F3 stable cell line (P00533 with tags, fused parts or gaps DUP768-770): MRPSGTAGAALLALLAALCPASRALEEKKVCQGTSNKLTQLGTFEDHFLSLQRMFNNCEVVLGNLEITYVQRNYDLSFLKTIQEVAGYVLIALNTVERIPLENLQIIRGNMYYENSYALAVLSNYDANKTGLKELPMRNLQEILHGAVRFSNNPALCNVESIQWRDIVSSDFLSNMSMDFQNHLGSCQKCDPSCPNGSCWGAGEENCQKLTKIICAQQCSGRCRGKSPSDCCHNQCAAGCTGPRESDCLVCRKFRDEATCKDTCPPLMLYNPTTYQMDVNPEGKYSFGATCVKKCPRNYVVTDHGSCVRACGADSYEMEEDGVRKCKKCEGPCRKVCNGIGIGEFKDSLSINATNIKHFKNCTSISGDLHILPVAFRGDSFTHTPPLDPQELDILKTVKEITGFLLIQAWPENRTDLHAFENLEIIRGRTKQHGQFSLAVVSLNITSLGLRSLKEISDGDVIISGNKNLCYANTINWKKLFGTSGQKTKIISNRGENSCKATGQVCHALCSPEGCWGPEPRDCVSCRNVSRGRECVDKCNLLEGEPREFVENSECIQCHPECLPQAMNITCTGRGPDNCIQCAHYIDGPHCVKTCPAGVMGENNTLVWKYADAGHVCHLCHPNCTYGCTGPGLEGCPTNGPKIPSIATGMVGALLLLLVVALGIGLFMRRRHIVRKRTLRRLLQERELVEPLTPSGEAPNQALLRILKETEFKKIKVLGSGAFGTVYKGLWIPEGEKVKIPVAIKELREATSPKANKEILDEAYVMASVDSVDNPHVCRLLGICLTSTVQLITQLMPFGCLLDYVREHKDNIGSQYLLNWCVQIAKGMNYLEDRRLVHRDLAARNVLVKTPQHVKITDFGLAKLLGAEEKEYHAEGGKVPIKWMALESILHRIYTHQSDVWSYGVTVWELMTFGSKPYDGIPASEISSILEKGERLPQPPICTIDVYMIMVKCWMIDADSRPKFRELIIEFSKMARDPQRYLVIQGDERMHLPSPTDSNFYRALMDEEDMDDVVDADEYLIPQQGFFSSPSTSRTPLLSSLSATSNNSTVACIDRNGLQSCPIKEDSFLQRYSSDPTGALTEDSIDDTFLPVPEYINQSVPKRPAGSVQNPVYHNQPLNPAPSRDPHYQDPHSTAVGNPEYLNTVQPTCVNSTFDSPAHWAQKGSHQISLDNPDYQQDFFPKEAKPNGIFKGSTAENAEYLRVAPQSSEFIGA
Chain of HER2 (A775_G776insYVMA) expressing Ba/F3 stable cell line (P04626 with tags, fused parts or gaps DUP772-775): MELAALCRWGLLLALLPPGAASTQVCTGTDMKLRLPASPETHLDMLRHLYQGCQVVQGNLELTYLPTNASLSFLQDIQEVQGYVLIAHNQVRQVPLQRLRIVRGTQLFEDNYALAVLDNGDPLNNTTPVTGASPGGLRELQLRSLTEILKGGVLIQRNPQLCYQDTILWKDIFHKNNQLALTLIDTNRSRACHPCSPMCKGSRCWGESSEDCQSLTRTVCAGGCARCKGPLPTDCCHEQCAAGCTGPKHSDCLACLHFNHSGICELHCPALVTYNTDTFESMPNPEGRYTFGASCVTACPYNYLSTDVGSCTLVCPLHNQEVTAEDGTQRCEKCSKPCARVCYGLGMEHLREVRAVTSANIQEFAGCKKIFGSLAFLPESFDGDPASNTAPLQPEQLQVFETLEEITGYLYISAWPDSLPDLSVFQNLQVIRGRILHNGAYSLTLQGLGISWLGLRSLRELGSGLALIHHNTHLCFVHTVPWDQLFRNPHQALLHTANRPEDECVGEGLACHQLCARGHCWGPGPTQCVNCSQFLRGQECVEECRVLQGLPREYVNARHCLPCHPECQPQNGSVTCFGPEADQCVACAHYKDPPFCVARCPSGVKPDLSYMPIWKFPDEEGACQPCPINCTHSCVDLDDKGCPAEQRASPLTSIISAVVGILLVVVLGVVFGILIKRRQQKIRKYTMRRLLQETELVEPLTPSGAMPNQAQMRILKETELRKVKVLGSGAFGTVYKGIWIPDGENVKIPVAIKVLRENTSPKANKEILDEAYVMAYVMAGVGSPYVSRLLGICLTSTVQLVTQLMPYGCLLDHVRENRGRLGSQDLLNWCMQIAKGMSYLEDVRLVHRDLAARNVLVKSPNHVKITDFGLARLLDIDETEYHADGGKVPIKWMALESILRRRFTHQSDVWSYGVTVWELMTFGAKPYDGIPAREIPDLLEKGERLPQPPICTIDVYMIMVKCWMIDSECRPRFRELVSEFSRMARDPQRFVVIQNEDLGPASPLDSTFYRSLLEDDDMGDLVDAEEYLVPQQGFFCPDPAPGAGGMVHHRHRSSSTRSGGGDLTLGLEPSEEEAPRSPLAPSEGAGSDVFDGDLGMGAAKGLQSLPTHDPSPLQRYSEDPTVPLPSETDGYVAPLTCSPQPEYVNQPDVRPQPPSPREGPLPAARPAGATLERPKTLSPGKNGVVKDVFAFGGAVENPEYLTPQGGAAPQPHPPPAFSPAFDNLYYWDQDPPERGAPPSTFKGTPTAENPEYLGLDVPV
Chain of EGFR (A767_dupASV) expressing Ba/F3 stable cell line (P00533 with tags, fused parts or gaps DUP767-769): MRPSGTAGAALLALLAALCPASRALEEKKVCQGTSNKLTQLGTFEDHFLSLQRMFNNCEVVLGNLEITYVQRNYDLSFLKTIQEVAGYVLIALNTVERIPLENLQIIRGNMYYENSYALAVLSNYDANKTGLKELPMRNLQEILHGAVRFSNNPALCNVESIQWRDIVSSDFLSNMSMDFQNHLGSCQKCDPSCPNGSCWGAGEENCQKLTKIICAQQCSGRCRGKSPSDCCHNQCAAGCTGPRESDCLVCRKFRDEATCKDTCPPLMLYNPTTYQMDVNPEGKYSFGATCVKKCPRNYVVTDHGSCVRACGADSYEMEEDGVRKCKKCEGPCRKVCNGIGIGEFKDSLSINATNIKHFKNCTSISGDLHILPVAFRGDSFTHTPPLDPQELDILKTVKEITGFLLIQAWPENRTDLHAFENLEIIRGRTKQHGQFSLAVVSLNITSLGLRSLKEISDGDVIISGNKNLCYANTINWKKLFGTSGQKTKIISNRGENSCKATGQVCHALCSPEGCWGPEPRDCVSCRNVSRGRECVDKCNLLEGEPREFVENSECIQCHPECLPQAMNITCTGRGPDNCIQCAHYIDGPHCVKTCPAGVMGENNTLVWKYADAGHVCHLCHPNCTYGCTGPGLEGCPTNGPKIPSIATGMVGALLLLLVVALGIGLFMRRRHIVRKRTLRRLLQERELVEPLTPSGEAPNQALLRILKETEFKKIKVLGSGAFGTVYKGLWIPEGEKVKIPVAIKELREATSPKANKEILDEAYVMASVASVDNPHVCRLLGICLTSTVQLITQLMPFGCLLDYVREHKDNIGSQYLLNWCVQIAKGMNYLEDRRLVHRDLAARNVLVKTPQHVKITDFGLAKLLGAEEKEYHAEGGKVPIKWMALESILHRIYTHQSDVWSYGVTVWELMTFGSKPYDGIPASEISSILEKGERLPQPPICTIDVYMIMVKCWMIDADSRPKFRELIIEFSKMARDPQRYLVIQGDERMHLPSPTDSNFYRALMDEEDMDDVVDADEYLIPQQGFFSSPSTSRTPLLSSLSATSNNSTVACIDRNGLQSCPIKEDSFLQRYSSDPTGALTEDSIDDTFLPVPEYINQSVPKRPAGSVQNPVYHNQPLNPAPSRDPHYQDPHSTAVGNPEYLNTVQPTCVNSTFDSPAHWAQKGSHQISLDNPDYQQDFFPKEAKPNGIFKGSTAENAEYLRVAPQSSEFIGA

Row | GI50 [1] [nM] | GI50 [2] [nM] | GI50 [3] [nM] | IC50 [4] [nM] | Structure (SMILES)
1 | 1590 | 749 | 644 | > 10000 | C=CC(=O)Nc1ccc(F)c(Nc2nc(Nc3cnn(C)c3)ncc2-c2cc(OC)ccc2Cl)c1 [Compound 8, N-(3-((5-(2-chloro-5-methoxyphenyl)-2-((1-methyl-1H-pyrazol-4-yl)amino)pyrimidin-4-yl)amino)-4-fluorophenyl)acrylamide]
2 | 930 | 721 | 838 | > 10000 | C=CC(=O)Nc1ccc(F)c(Nc2nc(Nc3cnn(C)c3)ncc2-c2cc(F)ccc2OC)c1 [Compound 9, N-(4-fluoro-3-((5-(5-fluoro-2-methoxyphenyl)-2-((1-methyl-1H-pyrazol-4-yl)amino)pyrimidin-4-yl)amino)phenyl)acrylamide]
3 | 329 | 428 | 890 | > 10000 | C=CC(=O)Nc1ccc(F)c(Nc2nc(Nc3cnn(C)c3)ncc2-c2ccc(OC)c(C(F)(F)F)c2)c1 [Compound 22, N-(4-fluoro-3-((5-(4-methoxy-3-(trifluoromethyl)phenyl)-2-((1-methyl-1H-pyrazol-4-yl)amino)pyrimidin-4-yl)amino)phenyl)acrylamide]
4 | 300 | 321 | 588 | 9420 | C=CC(=O)Nc1ccc(F)c(Nc2nc(Nc3cnn(C)c3)ncc2-c2cc(C(F)(F)F)ccc2F)c1 [Compound 24, N-(4-fluoro-3-((5-(2-fluoro-5-(trifluoromethyl)phenyl)-2-((1-methyl-1H-pyrazol-4-yl)amino)pyrimidin-4-yl)amino)phenyl)acrylamide]
5 | 8 | 7 | 21 | 20 | C=CC(=O)Nc1ccc(F)c(Nc2nc(Nc3cnn(C)c3)ncc2-c2cnc(F)c(F)c2)c1 [Compound 29, N-(3-((5-(5,6-difluoropyridin-3-yl)-2-((1-methyl-1H-pyrazol-4-yl)amino)pyrimidin-4-yl)amino)-4-fluorophenyl)acrylamide]
6 | 24 | 15 | 36 | 52 | C=CC(=O)Nc1ccc(F)c(Nc2nc(Nc3cnn(C)c3)ncc2-c2cnc(Cl)c(C(F)(F)F)c2)c1 [Compound 44, N-(3-((5-(6-chloro-5-(trifluoromethyl)pyridin-3-yl)-2-((1-methyl-1H-pyrazol-4-yl)amino)pyrimidin-4-yl)amino)-4-fluorophenyl)acrylamidet]
7 | 3270 | 3090 | 884 | > 10000 | C=CC(=O)Nc1ccc(F)c(Nc2nc(Nc3cnn(C)c3)ncc2-c2c(F)cccc2OC)c1 [Compound 63, N-(4-fluoro-3-((5-(2-fluoro-6-methoxyphenyl)-2-((1-methyl-1H-pyrazol-4-yl)amino)pyrimidin-4-yl)amino)phenyl)acrylamide]
8 | 95 | 43 | 171 | 54 | C=CC(=O)Nc1ccc(F)c(Nc2nc(Nc3cnn(C)c3)ncc2-c2ccc(N3CCC3)c(F)c2)c1 [Compound 80, N-(3-((5-(4-(azetidin-1-yl)-3-fluorophenyl)-2-((1-methyl-1H-pyrazol-4-yl)amino)pyrimidin-4-yl)amino)-4-fluorophenyl)acrylamide]
9 | 313 | 239 | 149 | 397 | C=CC(=O)Nc1ccc(F)c(Nc2nc(Nc3cnn(CCN(C)C)c3)ncc2-c2ccc(N3CCCCC3)c(F)c2)c1 [Compound 82, N-(3-((2-((1-(2-(dimethylamino)ethyl)-1H-pyrazol-4-yl)amino)-5-(3-fluoro-4-(piperidin-1-yl)phenyl)pyrimidin-4-yl)amino)-4-fluorophenyl)acrylamide]
10 | 314 | 268 | 884 | 2820 | C=CC(=O)Nc1ccc(F)c(Nc2nc(Nc3cnn(C)c3)ncc2-c2ccc(N3CCCCCC3)c(F)c2)c1 [Compound 85, N-(3-((5-(4-(azepan-1-yl)-3-fluorophenyl)-2-((1-methyl-1H-pyrazol-4-yl)amino)pyrimidin-4-yl)amino)-4-fluorophenyl)acrylamide]
11 | 15 | 31 | 59 | 11 | C=CC(=O)Nc1ccc(F)c(Nc2nc(Nc3cnn(C)c3)ncc2-c2cc(F)c(Br)c(F)c2)c1 [Compound 91, N-(3-((5-(4-bromo-3,5-difluorophenyl)-2-((1-methyl-1H-pyrazol-4-yl)amino)pyrimidin-4-yl)amino)-4-fluorophenyl)acrylamide]
12 | 35 | 46 | 173 | 33 | C=CC(=O)Nc1ccc(F)c(Nc2nc(Nc3cnn(C4CCOC4)c3)ncc2-c2ccc(Br)c(F)c2)c1 (stereo not drawn) [Compound 93, N-(3-((5-(4-bromo-3-fluorophenyl)-2-((1-(tetrahydrofuran-3-yl)-1H-pyrazol-4-yl)amino)pyrimidin-4-yl)amino)-4-fluorophenyl)acrylamide]
13 | 29 | 43 | 197 | 4770 | C=CC(=O)Nc1ccc(F)c(Nc2nc(Nc3cnn(CCOC)c3)ncc2-c2ccc(Br)c(F)c2)c1 [Compound 95, N-(3-((5-(4-bromo-3-fluorophenyl)-2-((1-(2-methoxyethyl)-1H-pyrazol-4-yl)amino)pyrimidin-4-yl)amino)-4-fluorophenyl)acrylamide]
14 | 13 | 24 | 62 | 12 | C=CC(=O)Nc1cc(F)cc(Nc2nc(Nc3cnn(C)c3)ncc2-c2ccc(Br)c(F)c2)c1 [Compound 97, N-(3-((5-(4-bromo-3-fluorophenyl)-2-((1-methyl-1H-pyrazol-4-yl)amino)pyrimidin-4-yl)amino)-5-fluorophenyl)acrylamide]
15 | 274 | 301 | 860 | 1200 | C=CC(=O)Nc1ccc(F)c(Nc2nc(Nc3cnn(CCOC)c3)ncc2-c2ccc(F)c(Cl)c2)c1 [Compound 100, N-(3-((5-(3-chloro-4-fluorophenyl)-2-((1-(2-methoxyethyl)-1H-pyrazol-4-yl)amino)pyrimidin-4-yl)amino)-4-fluorophenyl)acrylamide]
16 | 35 | 30 | 117 | 69 | [2H]C([2H])=CC(=O)Nc1ccc(F)c(Nc2nc(Nc3cnn(C)c3)ncc2-c2ccc(Br)c(F)c2)c1 [Compound 102, N-(3-((5-(4-bromo-3-fluorophenyl)-2-((1-methyl-1H-pyrazol-4-yl)amino)pyrimidin-4-yl)amino)-4-fluorophenyl)acrylamide-3,3-d2]
17 | 34 | 44 | 64 | 17 | C=CC(=O)Nc1ccc(F)c(Nc2nc(Nc3cn(C)nc3Cl)ncc2-c2cc(F)cc(F)c2)c1 [Compound 104, N-(3-((2-((3-chloro-1-methyl-1H-pyrazol-4-yl)amino)-5-(3,5-difluorophenyl)pyrimidin-4-yl)amino)-4-fluorophenyl)acrylamide]
18 | 129 | 663 | 125 | 85 | CN(C)C/C=C/C(=O)Nc1ccc(F)c(Nc2nc(Nc3cnn(C)c3)ncc2-c2ccc(Br)c(F)c2)c1 [Compound 105, (E)-N-(3-((5-(4-bromo-3-fluorophenyl)-2-((1-methyl-1H-pyrazol-4-yl)amino)pyrimidin-4-yl)amino)-4-fluorophenyl)-4-(dimethylamino)but-2-enamide]
19 | 285 | 35 | 568 | 125 | C=CC(=O)Nc1ccc(F)c(Nc2nc(Nc3cn(C)nc3Cl)ncc2-c2cc(F)cc(OC)c2)c1 [Compound 106, N-(3-((2-((3-chloro-1-methyl-1H-pyrazol-4-yl)amino)-5-(3-fluoro-5-methoxyphenyl)pyrimidin-4-yl)amino)-4-fluorophenyl)acrylamide]
20 | 39 | 96 | 243 | 23 | C=CC(=O)Nc1ccc(F)c(Nc2nc(Nc3cn(C)nc3Cl)ncc2-c2cc(F)cc(C(F)F)c2)c1 [Compound 108, N-(3-((2-((3-chloro-1-methyl-1H-pyrazol-4-yl)amino)-5-(3-(difluoromethyl)-5-fluorophenyl)pyrimidin-4-yl)amino)-4-fluorophenyl)acrylamide]
21 | 53 | 97 | 192 | 534 | C=CC(=O)Nc1ccc(F)c(Nc2nc(Nc3cnn(C)c3)ncc2-c2cc(F)cc(Br)c2)c1 [Compound 109, N-(3-((5-(3-bromo-5-fluorophenyl)-2-((1-methyl-1H-pyrazol-4-yl)amino)pyrimidin-4-yl)amino)-4-fluorophenyl)acrylamide]

— patent US20230416232A1, “PYRIMIDINE COMPOUNDS, COMPOSITIONS, AND MEDICINAL APPLICATIONS THEREOF” (Blueprint Medicines Corporation, priority 2020, published 2023)
